# According to patent publication US7795261B2, “Substituted 1-piperidin-4-yl-4-pyrrolidin-3-yl-piperazine derivatives and their use as neurokinin antagonists” (Janssen Pharmaceutica NV, priority 2002, dated 2010):
# Assays:
# Format in all cases: cell-based
# NK1 = NK1 (Homo sapiens, UniProt P25103); assay: Signal transduction (ST), intracellular Ca++ (FLIPR), NK1 antagonistic activity; details: read-out: pIC50 NK1 (converted)
# Method in brief: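 Confluent cells loaded with 2 μM Fluo3 (1 h, 37 °C, probenecid), preincubated 20 min at RT with antagonist concentration range, then agonist added. Peak Ca++ transient read by FLIPR in Krebs buffer pH 7.4; IC50 by non-linear regression.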
# NK3 = biological target: T1, NK3 (Homo sapiens, UniProt P29371); assay: Signal transduction (ST), intracellular Ca++ (FLIPR), NK3; details: read-out: pIC50 NK3 (converted)
# T1 sequence (P29371 1-465): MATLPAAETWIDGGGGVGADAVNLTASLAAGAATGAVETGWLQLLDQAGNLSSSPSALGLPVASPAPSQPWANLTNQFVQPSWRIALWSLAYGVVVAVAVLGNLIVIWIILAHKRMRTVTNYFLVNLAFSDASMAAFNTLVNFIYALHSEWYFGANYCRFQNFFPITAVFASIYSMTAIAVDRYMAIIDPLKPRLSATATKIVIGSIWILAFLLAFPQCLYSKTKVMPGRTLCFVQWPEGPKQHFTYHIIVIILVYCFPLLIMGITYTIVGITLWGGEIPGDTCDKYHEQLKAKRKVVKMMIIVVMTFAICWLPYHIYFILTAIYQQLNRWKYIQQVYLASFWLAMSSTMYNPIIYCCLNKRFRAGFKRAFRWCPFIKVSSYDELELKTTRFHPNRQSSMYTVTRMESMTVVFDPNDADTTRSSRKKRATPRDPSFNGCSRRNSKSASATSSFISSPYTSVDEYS
# NK2 = biological target: T2, NK2 (Homo sapiens, UniProt P21452); assay: Signal transduction (ST), intracellular Ca++ (FLIPR), NK2; details: read-out: pIC50 NK2 (converted)
# T2 sequence (P21452 1-398): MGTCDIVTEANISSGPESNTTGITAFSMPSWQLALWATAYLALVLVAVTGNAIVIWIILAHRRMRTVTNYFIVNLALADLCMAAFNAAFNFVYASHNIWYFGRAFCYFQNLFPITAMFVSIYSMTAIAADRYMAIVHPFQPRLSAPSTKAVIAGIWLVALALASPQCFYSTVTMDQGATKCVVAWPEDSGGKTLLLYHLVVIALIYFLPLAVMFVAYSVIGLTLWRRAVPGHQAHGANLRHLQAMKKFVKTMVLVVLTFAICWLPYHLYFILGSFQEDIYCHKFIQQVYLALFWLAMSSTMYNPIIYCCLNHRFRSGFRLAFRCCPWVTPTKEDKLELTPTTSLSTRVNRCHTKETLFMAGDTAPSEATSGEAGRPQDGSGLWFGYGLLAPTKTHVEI
# NK1, sequence (P25103 whole entry): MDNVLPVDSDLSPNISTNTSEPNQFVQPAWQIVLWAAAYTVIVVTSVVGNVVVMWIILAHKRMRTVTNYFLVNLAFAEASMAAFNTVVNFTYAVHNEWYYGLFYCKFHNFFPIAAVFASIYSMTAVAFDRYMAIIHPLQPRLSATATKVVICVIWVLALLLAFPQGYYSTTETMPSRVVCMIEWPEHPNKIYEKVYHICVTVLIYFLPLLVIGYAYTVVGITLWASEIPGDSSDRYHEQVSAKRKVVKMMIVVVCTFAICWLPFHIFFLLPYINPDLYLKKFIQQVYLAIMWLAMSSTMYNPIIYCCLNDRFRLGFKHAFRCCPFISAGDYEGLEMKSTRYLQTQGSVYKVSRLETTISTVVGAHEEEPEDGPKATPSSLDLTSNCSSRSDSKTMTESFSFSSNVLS
SMILES,IC50 (NK1),IC50 (NK3),IC50 (NK2)
CC1(C)OCC(CNC(=NC#N)N2CCC(N3CCN(C4CCN(C(=O)c5cc(C(F)(F)F)cc(C(F)(F)F)c5)C(Cc5ccccc5)C4)CC3)C2)O1 (stereo not drawn) [Compound 370],20 nM,7940 nM,6310 nM
N#CN=C(N1CCOCC1)N1CCC(N2CCN([C@H]3CCN(C(=O)c4cc(C(F)(F)F)cc(C(F)(F)F)c4)[C@H](Cc4ccccc4)C3)CC2)C1 (stereo partly drawn) [Compound 371],15.8 nM,5010 nM,7940 nM
COc1ccc(S(=O)(=O)N2CCC(N3CCN([C@H]4CCN(C(=O)c5cc(C(F)(F)F)cc(C(F)(F)F)c5)[C@H](Cc5ccccc5)C4)CC3)C2)cc1OC (stereo partly drawn) [Compound 378],12.6 nM,2000 nM,1580 nM
O=C(c1cc(C(F)(F)F)cc(C(F)(F)F)c1)N1CC[C@H](N2CCN(C3CCN(S(=O)(=O)c4ccccc4COCc4ccccc4)C3)CC2)C[C@H]1Cc1ccccc1 (stereo partly drawn) [Compound 401],251 nM,1260 nM,3160 nM
CC1(C)OC(=O)C[C@H]1C(=O)N1CCC(N2CCN([C@H]3CCN(C(=O)c4cc(C(F)(F)F)cc(C(F)(F)F)c4)[C@H](Cc4ccccc4)C3)CC2)C1 (stereo partly drawn) [Compound 404],6.31 nM,79.4 nM,5010 nM
COc1ccc(OC)c(S(=O)(=O)N2CCC(N3CCN([C@H]4CCN(C(=O)c5cc(C(F)(F)F)cc(C(F)(F)F)c5)[C@H](Cc5ccccc5)C4)CC3)C2)c1 (stereo partly drawn) [Compound 411],20 nM,1000 nM,2510 nM
COc1ccc(Cl)cc1S(=O)(=O)N1CCC(N2CCN([C@H]3CCN(C(=O)c4cc(C(F)(F)F)cc(C(F)(F)F)c4)[C@H](Cc4ccccc4)C3)CC2)C1 (stereo partly drawn) [Compound 412],79.4 nM,5010 nM,2510 nM
